Here are results for 4 compounds from US20180105492A1, “COMPOUNDS DERIVED FROM 3-ALKYLAMINE-1H-INDOLYL ACRYLATE AND THEIR USE IN THE TREATMENT OF NEURODEGENERATIVE DISEASES” (FUNDACION PARA LA INVESTIGACION BIOMEDICA DEL HOSPITAL …, priority 2014, published 2018).

Where only a bound is given, the exact number is not on record here.

What all share (format): cell-based
Data set [1] relates to SH-SY5Y cells. As to the kind of experiment: Neuroprotection against rotenone/oligomycin A, pre-incubation model, MTT. The conditions noted are these: Homo sapiens, compound 1 μM pre-incubation 24 h, then Rot/Olig (30/10 μM); for viability at 1 µM: read-out: % Survival. The method, then: (§1) SH-SY5Y cells [ECACC 94030304], in 5 to 16 passage after defreezing were maintained in Eagle media modified by Dulbecco (DMEM) containing 15 non-essential amino acids and supplemented with 10% fetal bovine serum, 1 mM glutamine, 50 units/mL penicillin/streptomycin (obtained from GIBCO, Madrid, Spain). Cells were seeded in flasks containing supplemented media and were maintained in an incubator at 37° C. and 5% CO2. 1:4 passes were performed twice per week. For the experiments, cells were seeded in 24 well-plates at a density of 2×10^5 cells/well, or in 96 well-plates at a density of 8×10^4 cells/well. For cytotoxicity experiments, cells were treated with the compounds before confluence with DMEM media supplemented with fetal bovine serum 1%.
(§2) In order to assess cellular viability, we measured the metabolic reduction of 3-(4,5-Dimethylthiazol-2-yl)-2,5 diphenyltetrazolium bromide (MTT). MTT is an indirect assay to measure cellular viability. It is a colorimetric method based on the reduction of 3-(4,5-Dimethylthiazol-2-yl)-2,5 diphenyltetrazolium. This process is performed by the mitochondrial enzyme succinate-dehydrogenase present in metabolic active cells. Thus, the water-soluble yellow MTT (tetrazolium salt) is transformed into a insoluble purple compound (formazan). Quantity of living cells is directly proportional to the quantity of formazan (Mosmann, 1983, J Immunol Methods, 65: 55-63). […] Therefore, with this assay we can measure cellular surviving and proliferation and also, we can determine the cytotoxicity of potential neuroprotective compounds. In order to assess cellular viability in SH-SY5Y cell line, we added 30 μl/well of MTT (5 mg/mL) and after 2 h, medium was carefully removed to avoid losing the formazan and was diluted in 300 μL of DMSO. Afterwards, samples were transferred to a 96 well-plate and the absorbance was measured at 570 nm using a absorbance/fluorescence reader FluoStar optima®. Every MTT assay was performed in triplicates. Absorbance values obtained with the toxic alone were subtracted to the absorbance values obtained in basal conditions (without treatment). That result was considered as the 100% of cell death and the values obtained with the compounds in the presence of the toxic stimulus were normalized as percentages of that value. For determining the surviving percentage, those percentages of cell death were subtracted to 100.
(§3) Neuroprotection elicited by the compounds of the invention 1-16: The activation of Nrf2-ARE pathway by different compounds exerts neuroprotective effects against toxic models based on oxidative stress via the expression of cytoprotective genes. […] We evaluated the neuroprotective potential of the compounds using the human neuroblastoma cell line using the following cytotoxicity models: 1) oxidative stress induced by rotenone+oligomycin, both blockers of the electron transport chain as previously described (Halliwell, 1992, J Neurochem, 59: 1609-23, Newhouse y col., 2004, Toxicol Sci, 79: 137-46), and 2) cytotoxicity induced by the electrophilic compound Menadione. This compound produces oxidative stress after being metabolized by microsomal enzymes in the cell which produces hydroxyl radical and oxygen reactive species. As a consequence, there is a depolarization of mitochondrial membrane generating a release of apoptotic factors such as cytochrome c, and activating the caspase cascade (Loor y col., 2010, Free Radic Biol Med, 49: 1925-36, Chuang y col., 2002, Cancer Res, 62: 6246-54). Caspase 3 activation can produce the lysis of proteins and induce DNA fragmentation, leading to cell death (Gerasimenko y col., 2002, J Cell Sci, 115: 485-97).
For this study we propose a protocol in which the cells are pre-incubated with each of the derivatives at 1 μM for 24 h. After the pre-incubation period, the medium was removed and replaced by culture medium with the rotenone/oligomycin-A (30 μM and 10 μM, respectively) toxic mixture. […]

The test system of data set [2] is SH-SY5Y cells. The data set is described as follows: Neuroprotection against rotenone/oligomycin A, pre- and co-incubation model, MTT. Conditions: Homo sapiens, compound 1 μM pre-incubation 24 h and co-incubation 24 h with Rot/Olig (30/10 μM); for inhibition at 1 µM: read-out: % Protection; for viability at 1 µM: read-out: % Survival. The method, then: as §1, §2, §3
In this model, a 24 h pre-incubation period was performed in presence of the compounds synthesized at a concentration of 1 μM. Thereafter, a 24 h co-incubation period was added, in presence of the compounds with rotenone/oligomycin A (30 μM/10 μM) mixture. After 24 h, cell viability was assessed by the MTT reduction method. […]

In data set [3] the test system is SH-SY5Y cells. As to the kind of experiment: Toxicity in SH-SY5Y neuronal cell line, reduction of cell viability (MTT). How it is done: as §2, with “100. […]” for “100.”
In order to further study its safety profile, the effect of the derivatives on neuronal cells used for neuroprotection experiments, the SH-SY5Y human neuroblastoma cells, was also evaluated. Maintenance and culture methods of this cell line have been described above. For toxicity experiments, SH-SY5Y cells were plated in 96-well plates at the density of 6×10 ^4 cells/well. The experimental conditions were the same as those described for the toxicity study in HepG2 cells.
The results obtained are shown in Table 6 expressed as the lethal dose 50 (LD50), or needed concentration to reduce to 50% the viability of basal conditions (without treatment), measured by the MTT reduction method.

Setting [4] is: 24 h incubation, MTT, concentration reducing viability to 50% of basal.

Turning to `CC(=O)NCCc1c[nH]c2ccc(OC(=O)/C=C/c3cccc(C(F)(F)F)c3)cc12` [Compound 14, 3-(2-acetamidoethyl)-1H-indol-5-yl (E)-3-(3-(trifluoromethyl)phenyl)acrylate], in the data set with SH-SY5Y cells [1], the percent protection against toxin-induced cell death at 1 µM was determined as 34.9% and the viability at 1 µM stood at 72.5 ± 2.92%. Also, in the data set on SH-SY5Y cells [2], the inhibition at 1 µM was determined as 45.9% and the viability at 1 µM is 72.6 ± 3.75%. Moreover, in the data set with SH-SY5Y cells [3] (setting [4]), the “SH-SY5Y LD50” value is above 100 µM.
Regarding `CC(=O)NCCc1c[nH]c2ccc(OC(=O)/C=C/c3ccc(C(F)(F)F)cc3)cc12` [Compound 15, 3-(2-acetamidoethyl)-1H-indol-5-yl (E)-3-(4-(trifluoromethyl)phenyl)acrylate], in the data set with SH-SY5Y cells [1], the percent protection against toxin-induced cell death at 1 µM came out at 37.5% and the viability at 1 µM is 73.4 ± 3.31%. In the data set on SH-SY5Y cells [2], the inhibition at 1 µM amounted to 47.6% and the viability at 1 µM worked out at 73 ± 2.99%. For the same compound, in the data set on SH-SY5Y cells [3] (setting [4]), the “SH-SY5Y LD50” value is 70 µM.
The corresponding values for `CC(=O)NCCc1c[nH]c2ccc(OC(=O)/C=C/c3ccc([N+](=O)[O-])cc3)cc12` [Compound 16, 3-(2-acetamidoethyl)-1H-indol-5-yl (E)-3-(4-nitrophenyl)acrylate] are 23%, 68.5 ± 2.88%, 29.5%, 76.5 ± 2.18% and above 100 µM.
Consider `COc1ccc2[nH]cc(CCNC(C)=O)c2c1` [Melatonin, reference compound], for which, in the data set on SH-SY5Y cells [1], the percent protection against toxin-induced cell death at 1 µM amounted to 31.6% and the viability at 1 µM worked out at 71.8 ± 2.81%. Moreover, in the data set on SH-SY5Y cells [2], the inhibition at 1 µM amounted to 31.1% and the viability at 1 µM is 68.3 ± 4.27%. The “SH-SY5Y LD50” value with SH-SY5Y cells [3] (human, 24 h) was above 100 µM.
